In patent US11084879B2, “Compositions and methods for treating pancreatitis and pain with death receptor agonists” (The Johns Hopkins University, priority 2016, dated 2021):
Like-named read-outs stand apart in the source and are kept apart here.

Columns and labels:
EtOH-activated PSCs = test: Caspase 3/7 assay in EtOH-activated PSCs; format: cell-based, human; details: alcohol-activated PSCs; different concentrations (0-10^3 ng/mL), alcohol still present in culture
Method: Caspase 3/7 activities were measured by caspase3/7 assay kit (Promega) according to the manufacturer's protocol. The luminescence of each sample was measured on a plate reader (Bio-Tek Instruments Inc) with parameters of 1 min lag time and 0.5 sec/well read time (n=4).
To investigate TRAIL-induced apoptosis in alcohol-activated PSCs, 2×10^4 cells were cultured for overnight in a 96-well plate and then activated with 50 mM EtOH for 48 h. […] Apoptosis was measured by MTT cell death assay and caspase 3/7 assay as described above.

activated PSCs = test: Apoptosis markers in activated PSCs, TRAILPEG versus conventional toxic agents; format: cell-based, human; details: 48 hr, DOX 100 nM, CIS 10 μM, H2O2 10 μM
[1] = rodents; cited from earlier work
[2] = humans; cited from earlier work

## conatumumab: human anti-DR5 agonistic antibody (Creative Biolabs)
EtOH-activated PSCs
  apoptosis (caspase 3/7 activity, FIG. 9): induced strong apoptosis dose-dependently

## OO [hydrogen peroxide]
Activated PSCs
  killing of activated PSCs by conventional toxic agents: difficult to kill

## N.N.[Cl][Pt][Cl] [cisplatin]
Activated PSCs
  killing of activated PSCs by conventional toxic agents: difficult to kill

## COc1cccc2c1C(=O)c1c(O)c3c(c(O)c1C2=O)C[C@@](O)(C(=O)CO)C[C@@H]3O[C@H]1C[C@H](N)[C@H](O)[C@H](C)O1 [doxorubicin]
Activated PSCs
  killing of activated PSCs by conventional toxic agents: difficult to kill

## TRAIL: TNF (Tumor Necrosis Factor)-related apoptosis-inducing ligand, protein ligand that induces apoptosis
[1]
  t1/2: less than 5 min
[2]
  t1/2: < 30 min
